From patent US20230265151A1, “GIP/GLP1 CO-AGONIST COMPOUNDS” (priority 2020, published 2023)
Read-outs that look alike come from different tables or passages of the source.

Key:
Format in all cases: cell-based
[1] = target: T1, hGIPR (Homo sapiens, UniProt P48546); assay: Functional cAMP formation (HTRF) in HEK-293 clonal cells expressing hGIPR, 0.1% bovine casein, without or with 1.0% human serum albumin; conditions: for Emax: 37° C., read-out: hGIPR Emax, % ± SEM
T1 construct: expressed in transfected cells
T1 sequence (P48546 22-466): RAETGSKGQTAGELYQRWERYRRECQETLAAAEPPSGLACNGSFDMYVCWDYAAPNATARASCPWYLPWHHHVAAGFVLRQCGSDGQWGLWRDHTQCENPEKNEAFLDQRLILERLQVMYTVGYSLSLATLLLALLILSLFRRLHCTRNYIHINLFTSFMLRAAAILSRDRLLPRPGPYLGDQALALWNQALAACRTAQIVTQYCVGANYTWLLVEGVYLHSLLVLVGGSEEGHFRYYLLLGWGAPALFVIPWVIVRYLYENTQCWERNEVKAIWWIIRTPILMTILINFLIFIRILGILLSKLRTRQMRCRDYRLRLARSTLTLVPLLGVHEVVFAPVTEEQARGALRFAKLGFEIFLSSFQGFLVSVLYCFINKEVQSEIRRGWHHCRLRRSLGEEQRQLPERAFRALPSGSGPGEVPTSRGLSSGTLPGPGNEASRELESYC
In short: (§1)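 Readings of the HTRF 665/620 nm ratio, which falls as cAMP rises, were converted to nM cAMP using a standard curve after 30 min peptide exposure at 37° C.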

[2] = target: T2, hGCGR (Homo sapiens, UniProt P47871); assay: Functional cAMP formation (HTRF) in HEK-293 clonal cells expressing hGCGR, 0.1% bovine casein, without or with 1.0% human serum albumin; conditions: geometric mean, read-out: hGCGR EC50, nM (SEM, n)
T2 construct: expressed in transfected cells
T2 sequence (P47871 26-477): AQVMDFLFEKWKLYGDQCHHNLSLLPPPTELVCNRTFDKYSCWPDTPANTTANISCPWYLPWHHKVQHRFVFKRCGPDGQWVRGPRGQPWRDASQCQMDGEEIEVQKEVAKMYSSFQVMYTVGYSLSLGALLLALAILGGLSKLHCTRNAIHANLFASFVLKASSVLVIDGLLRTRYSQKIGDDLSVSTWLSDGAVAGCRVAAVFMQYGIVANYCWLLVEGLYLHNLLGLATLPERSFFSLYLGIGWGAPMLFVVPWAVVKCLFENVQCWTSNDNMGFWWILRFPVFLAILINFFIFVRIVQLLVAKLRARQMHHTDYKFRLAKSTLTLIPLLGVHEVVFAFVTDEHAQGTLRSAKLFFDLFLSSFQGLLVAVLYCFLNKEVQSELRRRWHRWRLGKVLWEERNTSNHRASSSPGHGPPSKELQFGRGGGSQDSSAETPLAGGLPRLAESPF
In short: as §1

[3] = target: hGLP-1R (Homo sapiens, UniProt P43220); assay: Functional cAMP formation (HTRF) in HEK-293 clonal cells expressing hGLP-1R, 0.1% bovine casein, without or with 1.0% human serum albumin; design: expressed in transfected cells; conditions: 37° C., read-out: hGLP-1R Emax, % ± SEM
hGLP-1R, sequence (P43220 24-463): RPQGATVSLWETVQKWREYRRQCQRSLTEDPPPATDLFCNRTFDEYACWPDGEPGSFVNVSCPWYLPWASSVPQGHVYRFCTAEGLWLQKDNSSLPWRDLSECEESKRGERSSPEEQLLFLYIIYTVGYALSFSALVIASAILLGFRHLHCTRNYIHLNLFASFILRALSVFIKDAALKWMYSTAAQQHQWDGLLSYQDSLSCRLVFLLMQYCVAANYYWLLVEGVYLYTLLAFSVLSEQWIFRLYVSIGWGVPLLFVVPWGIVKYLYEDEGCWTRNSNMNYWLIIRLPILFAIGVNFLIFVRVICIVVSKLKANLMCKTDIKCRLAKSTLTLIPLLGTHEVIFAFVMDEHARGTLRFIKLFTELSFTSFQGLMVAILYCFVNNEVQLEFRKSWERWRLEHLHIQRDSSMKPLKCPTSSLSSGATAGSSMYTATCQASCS
In short: as §1

[4] = HEK293, 0.1% bovine casein and 1.0% human serum albumin, percent of maximal response to GIP(1-42)NH2
[5] = HEK293, percent of maximal response to GIP(1-42)NH2, 0.1% bovine casein, arithmetic mean
[6] = 0.1% bovine casein and 1.0% human serum albumin, 37° C.
[7] = cAMP, incubated at 37° C., 0.1% bovine casein (no human serum albumin)
[8] = HEK293, 0.1% bovine casein and 1.0% human serum albumin, percent of maximal response to GLP-1(7-36)NH2

Row | SMILES | Emax [1, 4] [%] | Emax [1, 5] [%] | EC50 [2, 6] [nM] | EC50 [2, 7] [nM] | Emax [3, 8] [%] | EC50 ([1]; cAMP, incubated at 37° C., 0.1% bovine casein (no human serum albumin), geometric mean, read-out: hGIPR EC50, nM (SEM, n)) [nM] | Emax ([3]; HEK293, percent of maximal response to GLP-1(7-36)NH2, 0.1% bovine casein, arithmetic mean) [%]
1 | CC[C@H](C)[C@H](NC(=O)[C@H](CC(C)C)NC(=O)[C@](C)(Cc1ccc(O)cc1)NC(=O)[C@@H](CCC(=O)O)NC(=O)[C@@H](NC(=O)[C@](C)(Cc1ccccc1)NC(=O)[C@H](CCC(=O)O)NC(=O)C(C)(C)NC(=O)[C@H](CCC(N)=O)NC(=O)[C@H](C)NC(=O)[C@H](CCCCNC(=O)COCCOCCNC(=O)COCCOCCNC(=O)CC[C@H](NC(=O)CCCCCCCCCCCCC(=O)O)C(=O)O)NC(=O)[C@H](CCCN)NC(=O)[C@H](CC(=O)O)NC(=O)[C@H](CC(C)C)NC(=O)[C@](C)(CC(C)C)NC(=O)[C@@H](NC(=O)C(C)(C)NC(=O)[C@@H](NC(=O)[C@H](CC(=O)O)NC(=O)[C@H](CO)NC(=O)[C@@H](NC(=O)[C@](C)(Cc1ccccc1F)NC(=O)[C@@H](NC(=O)CNC(=O)[C@H](CCC(=O)O)NC(=O)C(C)(C)NC(=O)[C@@H](N)Cc1ccc(O)cc1)[C@@H](C)O)[C@@H](C)O)C(C)C)[C@@H](C)CC)[C@@H](C)CC)C(=O)N[C@@H](CCC(=O)O)C(=O)NCC(=O)NCC(=O)N[C@@H](CCCCNC(=O)COCCOCCNC(=O)COCCOCCNC(=O)CC[C@H](NC(=O)CCCCCCCCCCCCC(=O)O)C(=O)O)C(=O)N[C@@H](CO)C(=O)N[C@@H](CO)C(=O)NCC(=O)N[C@@H](C)C(=O)N1CCC[C@H]1C(=O)N1CCC[C@H]1C(=O)N1CCC[C@H]1C(=O)N[C@@H](CO)C(N)=O [Example 93] | 92 | 99.4 ± 6.93 | > 9950 | > 9950 | 90.2 | – | –
2 | CC[C@H](C)[C@H](NC(=O)[C@H](CC(C)C)NC(=O)[C@](C)(Cc1ccc(O)cc1)NC(=O)[C@@H](CCC(=O)O)NC(=O)[C@@H](NC(=O)[C@H](Cc1ccccc1Cl)NC(=O)[C@H](CCC(=O)O)NC(=O)C(C)(C)NC(=O)[C@H](CCC(N)=O)NC(=O)[C@H](C)NC(=O)[C@H](CCCCNC(=O)COCCOCCNC(=O)COCCOCCNC(=O)CC[C@H](NC(=O)CCCCCCCCCCCCC(=O)O)C(=O)O)NC(=O)[C@H](CCCN)NC(=O)[C@H](CC(=O)O)NC(=O)[C@H](CC(C)C)NC(=O)[C@](C)(CC(C)C)NC(=O)[C@@H](NC(=O)[C@H](CO)NC(=O)[C@H](Cc1ccncc1)NC(=O)[C@H](CC(=O)O)NC(=O)[C@H](CO)NC(=O)[C@@H](NC(=O)[C@](C)(Cc1ccccc1F)NC(=O)[C@@H](NC(=O)CNC(=O)[C@H](CCC(=O)O)NC(=O)C(C)(C)NC(=O)[C@@H](N)Cc1ccc(O)cc1)[C@@H](C)O)[C@@H](C)O)[C@@H](C)CC)[C@@H](C)CC)C(=O)N[C@@H](CCC(=O)O)C(=O)NCC(=O)NCC(=O)N[C@@H](CCCCNC(=O)COCCOCCNC(=O)COCCOCCNC(=O)CC[C@H](NC(=O)CCCCCCCCCCCCC(=O)O)C(=O)O)C(=O)N[C@@H](CO)C(=O)N[C@@H](CO)C(=O)NCC(=O)N[C@@H](C)C(=O)N1CCC[C@H]1C(=O)N1CCC[C@H]1C(=O)N1CCC[C@H]1C(=O)N[C@@H](CO)C(N)=O [Example 61] | 92.8 | 88.2 | > 9950 | > 9950 | 89.7 | 0.012 | 82.9
